Experimental data from the supplement of paper PMC11451515.

Test system: SEM cells
Assay: cell viability relative to DMSO control; higher = less cytotoxic
Settings: 48 h
Procedure, shortened: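 Viability is expressed as a percentage of DMSO wells within each plate, and cell-free wells serve as background. Seeding densities in the 1536-well plates (5 μl) were 500 cells/well for NOMO1 or SEM leukemia cells and 1000 cells/well for P12-Ichikawa. Each line was adapted for at least four passages in each medium. Library compounds in DMSO were pin-dosed at 47 μM to 0.79 nM (11 points, threefold), and CellTiter-Glo One luminescence was read after 48 h at 37°C.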

[1] = HPLM + 10% dialyzed FBS, 0.000781 µM
[2] = HPLM + 10% dialyzed FBS, 0.00234 µM
[3] = HPLM + 10% dialyzed FBS, 0.00702 µM
[4] = HPLM + 10% dialyzed FBS, 0.0211 µM
[5] = HPLM + 10% dialyzed FBS, 0.0632 µM
[6] = HPLM + 10% dialyzed FBS, 0.19 µM
[7] = HPLM + 10% dialyzed FBS, 0.569 µM
[8] = HPLM + 10% dialyzed FBS, 1.71 µM
[9] = HPLM + 10% dialyzed FBS, 5.12 µM
[10] = HPLM + 10% dialyzed FBS, 15.4 µM
[11] = HPLM + 10% dialyzed FBS, 46.1 µM
[12] = RPMI 5 mM glucose + 10% FBS, 0.000781 µM
[13] = RPMI 5 mM glucose + 10% FBS, 0.00234 µM
[14] = RPMI 5 mM glucose + 10% FBS, 0.00702 µM
[15] = RPMI 5 mM glucose + 10% FBS, 0.0211 µM
[16] = RPMI 5 mM glucose + 10% FBS, 0.0632 µM
[17] = RPMI 5 mM glucose + 10% FBS, 0.19 µM
[18] = RPMI 5 mM glucose + 10% FBS, 0.569 µM
[19] = RPMI 5 mM glucose + 10% FBS, 1.71 µM
[20] = RPMI 5 mM glucose + 10% FBS, 5.12 µM
[21] = RPMI 5 mM glucose + 10% FBS, 15.4 µM
[22] = RPMI 5 mM glucose + 10% FBS, 46.1 µM
[23] = RPMI 5 mM glucose + 10% dialyzed FBS, 0.000781 µM
[24] = RPMI 5 mM glucose + 10% dialyzed FBS, 0.00234 µM
[25] = RPMI 5 mM glucose + 10% dialyzed FBS, 0.00702 µM
[26] = RPMI 5 mM glucose + 10% dialyzed FBS, 0.0211 µM
[27] = RPMI 5 mM glucose + 10% dialyzed FBS, 0.0632 µM
[28] = RPMI 5 mM glucose + 10% dialyzed FBS, 0.19 µM
[29] = RPMI 5 mM glucose + 10% dialyzed FBS, 0.569 µM
[30] = RPMI 5 mM glucose + 10% dialyzed FBS, 1.71 µM
[31] = RPMI 5 mM glucose + 10% dialyzed FBS, 5.12 µM
[32] = RPMI 5 mM glucose + 10% dialyzed FBS, 15.4 µM
[33] = RPMI 5 mM glucose + 10% dialyzed FBS, 46.1 µM

Row | Structure (SMILES) | cell viability [1] [%] | cell viability [2] [%] | cell viability [3] [%] | cell viability [4] [%] | cell viability [5] [%] | cell viability [6] [%] | cell viability [7] [%] | cell viability [8] [%] | cell viability [9] [%] | cell viability [10] [%] | cell viability [11] [%] | cell viability [12] [%] | cell viability [13] [%] | cell viability [14] [%] | cell viability [15] [%] | cell viability [16] [%] | cell viability [17] [%] | cell viability [18] [%] | cell viability [19] [%] | cell viability [20] [%] | cell viability [21] [%] | cell viability [22] [%] | cell viability [23] [%] | cell viability [24] [%] | cell viability [25] [%] | cell viability [26] [%] | cell viability [27] [%] | cell viability [28] [%] | cell viability [29] [%] | cell viability [30] [%] | cell viability [31] [%] | cell viability [32] [%] | cell viability [33] [%]
1 | COc1ccc(CCC(=O)c2c(O)cc(O[C@@H]3O[C@H](CO)[C@@H](O)[C@H](O)[C@H]3O[C@@H]3O[C@@H](C)[C@H](O)[C@@H](O)[C@H]3O)cc2O)cc1O | 112 | 115 | 120 | 128 | 128 | 119 | 128 | 119 | 134 | 124 | 116 | – | – | – | – | – | – | – | – | – | – | – | – | – | – | – | – | – | – | – | – | – | –
2 | Cc1ccc(Nc2cc(-c3cccc(N4C(=O)c5ccccc5C4=O)c3)ncn2)cc1N[S+](C)(=O)[O-] | 102 | 97.9 | 131 | 117 | 126 | 123 | 117 | 137 | 123 | 123 | 76.2 | 123 | 95.8 | 137 | 138 | 128 | 132 | 142 | 166 | 133 | 132 | 105 | 122 | 117 | 119 | 119 | 135 | 115 | 127 | 154 | 136 | 142 | 77.7
3 | CNC[C@H](O)[C@@H](O)[C@H](O)[C@H](O)CO | 96.3 | 106 | 103 | 106 | 106 | 114 | 127 | 63.4 | 121 | 40.9 | 112 | 103 | 96.2 | 107 | 93.9 | 117 | 115 | 132 | 61.3 | 112 | 24.9 | 114 | 98.1 | 118 | 98.8 | 88.8 | 116 | 103 | 122 | 58.3 | 136 | 28 | 119
4 | Oc1cc(-c2nc(-c3ccccc3)[nH]c2-c2ccncc2)ccc1Cl | 105 | 115 | 118 | 110 | 104 | 122 | 103 | 104 | 107 | 100 | 80.3 | 120 | 114 | 115 | 117 | 107 | 111 | 122 | 116 | 106 | 111 | 45.2 | – | – | – | – | – | – | – | – | – | – | –
5 | Cc1ccc2nc(NCCN)c3ncc(C)n3c2c1 | 104 | 112 | 111 | 106 | 122 | 113 | 106 | 101 | 102 | 23.2 | 5.23 | 111 | 108 | 129 | 110 | 122 | 119 | 123 | 102 | 108 | 86.4 | 5.06 | 94.9 | 110 | 94.9 | 94.5 | 101 | 106 | 111 | 77.7 | 91 | 67.4 | 4.44
6 | C[S+](=O)([O-])Oc1ccc2c(NC(N)=O)c(C(=O)c3ccc(Cl)cc3Cl)oc2c1 | 98.3 | 103 | 107 | 109 | 109 | 104 | 110 | 117 | 129 | 120 | 120 | 93.7 | 95.9 | 106 | 109 | 117 | 105 | 106 | 114 | 103 | 122 | 112 | 82.9 | 91.6 | 102 | 94 | 97 | 103 | 105 | 92.7 | 98.2 | 92.5 | 105
7 | OC1=CC=C(C=C1)C/2=C/C3=C(OC2)C=C(O)C=C3 | 107 | 111 | 112 | 109 | 114 | 120 | 101 | 84.9 | 21.2 | 2.3 | 1.5 | 108 | 117 | 122 | 115 | 109 | 106 | 80.8 | 93.1 | 23.7 | 1.46 | 1.13 | 111 | 107 | 125 | 90.8 | 99.1 | 108 | 85.5 | 89.1 | 25 | 2.21 | 1.74
8 | CCCCCNC(=N)N/N=C/c1c[nH]c2ccc(OC)cc12 | 112 | 119 | 114 | 128 | 108 | 130 | 115 | 124 | 106 | 48 | 31.2 | – | – | – | – | – | – | – | – | – | – | – | 111 | 118 | 115 | 110 | 117 | 117 | 130 | 122 | 99.1 | 56.7 | 36.6
